Laboratory results published in patent US4689345A, “Oxygenated alkyl substituted bicyclo alkanes” (CBD Corporation, priority 1986, dated 1987).
Where “and” joins values, the source holds several entries; their conditions need not be identical. Equal entries are not always repeated. Entries after “also recorded” stand apart in the source; their conditions may differ.

Columns and labels:
human fibroblast cells [1] = assay: Elastin production by fibroblast cells; format: cell-based; conditions: for formation of elastin: Example 45; for increase in elastin production over control cells: treated vs control (non-treated) fibroblast cells
Description: (§1) Experiments generally following the methodology of Boote et al., Biochimica et Biophysica Acta, Volume 607, pages 145-160 (1980), have shown that while control human fibroblast cells have copious collagen production, treatment with the compounds of the invention provides human fibroblast cells with suppressed collagen production and with an about 30% increase in elastin production over control cells.
(§2) Wrinkling of the skin involves the decreased formation of elastin and the increased formation of collagen by supporting cells, predominantly the fibroblasts.

human fibroblast cells [2] = assay: Collagen production by fibroblast cells; format: cell-based; conditions: treated vs control cells
Description: as §1, §2

androgen receptor [3] = target: T1, androgen receptor (Homo sapiens, UniProt P10275); assay: In vitro inhibition of the androgen receptor-testosterone interaction; format: binding; parameters: from tissue; conditions: for inhibition of the androgen receptor site: 10 molecules of compound for one molecule of testosterone; for Femtamoles of Testosterone Bound/mg Protein / % of Androgen Receptor Inhibition: ratio of compound to androgen 20:1; for Femtamoles of Testosterone Bound/mg Protein: corrected for nonspecific binding, 0:1 = 3.6; for % of Androgen Receptor Inhibition: testosterone
T1 sequence (P10275 1-920): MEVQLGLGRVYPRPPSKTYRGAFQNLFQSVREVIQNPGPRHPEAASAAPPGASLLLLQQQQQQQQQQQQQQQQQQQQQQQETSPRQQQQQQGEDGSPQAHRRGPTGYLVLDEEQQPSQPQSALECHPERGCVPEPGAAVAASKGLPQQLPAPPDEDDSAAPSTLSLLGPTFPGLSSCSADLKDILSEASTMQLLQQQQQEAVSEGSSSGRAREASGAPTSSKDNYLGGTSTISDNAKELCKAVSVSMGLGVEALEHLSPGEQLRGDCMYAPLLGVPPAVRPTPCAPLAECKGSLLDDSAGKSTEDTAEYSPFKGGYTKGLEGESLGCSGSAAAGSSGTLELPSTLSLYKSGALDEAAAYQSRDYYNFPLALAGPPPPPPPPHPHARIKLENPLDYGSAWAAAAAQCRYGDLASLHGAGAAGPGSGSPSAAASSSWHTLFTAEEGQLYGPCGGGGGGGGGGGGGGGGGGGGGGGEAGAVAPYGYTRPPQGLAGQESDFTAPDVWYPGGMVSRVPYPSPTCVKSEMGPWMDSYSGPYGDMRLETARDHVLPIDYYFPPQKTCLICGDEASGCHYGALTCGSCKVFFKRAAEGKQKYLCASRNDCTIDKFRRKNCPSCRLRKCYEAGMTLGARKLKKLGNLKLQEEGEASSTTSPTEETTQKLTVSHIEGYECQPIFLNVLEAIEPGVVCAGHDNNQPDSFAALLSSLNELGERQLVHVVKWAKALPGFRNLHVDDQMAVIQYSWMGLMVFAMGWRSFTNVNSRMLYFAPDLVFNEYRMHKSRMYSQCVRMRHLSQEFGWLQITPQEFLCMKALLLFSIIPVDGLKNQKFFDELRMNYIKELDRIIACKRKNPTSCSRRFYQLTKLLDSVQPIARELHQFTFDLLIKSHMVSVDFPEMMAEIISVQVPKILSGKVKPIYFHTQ
Description: Competitive inhibition experiments were performed using compound IV in the second technique described above.

androgen receptor [4] = assay: Androgen receptor inhibition, Pseudomonas testosteroni; format: binding; conditions: DHT:anti-androgen 1:1,000
androgen receptor site = target: T2, androgen receptor site (Homo sapiens, UniProt P10275); assay: % inhibition of labelled androgen (3H DHT) binding to caesarean section skin from hirsute patients
T2 construct: the test utilizing caesarean section skin from hirsute patients; from tissue; host or cells: caesarean section skin from hirsute patients
T2 sequence (P10275 1-920): T1 sequence (P10275 1-920)

Fusarium = assay: Effects on Fusarium growth and fungal hormone production; format: cell-based
Description: It is also known that these fungi elaborate zearalenone and zearalanol which are toxic substances to livestock ingesting the grain rotted by them. Ingestion of these toxic substances is known to influence the prepubertal development of pigs (Berger et al., Journal of Animal Science, Vol. 53, pages 1559-1564 (1981). Zearalenone and zearalanol also affect milk production, breeding and pregnancy in such large livestock animals as pigs, cows and horses (Young et al., Journal of Animal Science, Vol. 54, pages 976-982). The Fusarium family of fungi also adversely affect chicken, turkey and other poultry animal populations (Allen et al., Poultry Science, Vol. 60, pages 124-131 (1981); Mirocha et al., Poultry Science, Vol. 60, pages 19-25 (1981)). Because of the importance of livestock production, the effect of the anti-androgens of this invention on these fungi was extensively studied. There is no currently available satisfactory treatment for the fungi nor the fungal hormones they elaborate (i.e., zearalenone and zearalanol).

androgen receptor sites = target: T3, androgen receptor sites (Homo sapiens, UniProt P10275); assay: Anti-androgenic action in similar tests
T3 construct: other tests of the document use human skin, keloid and fibroblasts with 3H-DHT
Description: The test procedures set forth in Examples 54-58 may be repeated with the compound 2-(5-methoxyhept-1-yl)bicyclo[3.3.0]octan-7-one {hexahydro-4-(5-methoxyheptyl)-2(1H)-pentalenone}.

estrogen receptor = assay: Estrogen receptor inhibition, Cryptococci; format: binding
progesterone receptor [5] = assay: Progesterone receptor inhibition, Norcardia; format: binding
progesterone receptor [6] = assay: Progesterone receptor inhibition, Saccharomyces cerevisiae strains; conditions: DHT:anti-androgen 1:1,000
androgen receptor [7] = target: T1, androgen receptor; assay: In vitro inhibition of the androgen receptor-DHT interaction; format: binding; parameters: from tissue; conditions: for % of Androgen Receptor Inhibition: DHT; for Femtamoles of DHT Bound/mg Protein: corrected for nonspecific binding, 0:1 = 78
androgen receptor [8] = target: T1, androgen receptor; assay: Androgen receptor inhibition in skin/tissue fibroblast lines; format: cell-based; parameters: The bald skin was used for androgen receptors using the second technique described above; from tissue; host or cells: bald scalp skin of hair transplantation volunteers; conditions: DHT:compound 1:1,000
Description: Explants of both normal and keloid skin and tissue fibroblast lines were established.
Hormonal receptor analyses on these tissues were performed by the method of Griffith et al., Journal of Clinical Investigation, Vol. 57, page 1340 (1978).

[9] = ratio of compound to androgen 10:1
[10] = ratio of compound to androgen 100:1
[11] = ratio of compound to androgen 1000:1
[12] = ratio of compound to androgen 10000:1

SMILES | formation of elastin (human fibroblast cells [1]) | increase in elastin production over control cells (human fibroblast cells [1]) [%] | collagen production/formation (human fibroblast cells [2]) | inhibition of the androgen receptor site (androgen receptor [3]) | Femtamoles of Testosterone Bound/mg Protein (androgen receptor [3]) [Femtamoles/mg Protein] | % of Androgen Receptor Inhibition (androgen receptor [3]) [%] | % Inhibition of 3H Androgen Binding to Skin (androgen receptor site; [9]) [%] | % Inhibition of 3H Androgen Binding to Skin (androgen receptor site; [10]) [%] | % Inhibition of 3H Androgen Binding to Skin (androgen receptor site; [11]) [%] | % Inhibition of 3H Androgen Binding to Skin (androgen receptor site; [12]) [%] | inhibitory effects on species of Fusarium (Fusarium) | anti-androgenic action (androgen receptor sites) | % of Androgen Receptor Inhibition (androgen receptor [7]; [9]) [%] | % of Androgen Receptor Inhibition (androgen receptor [7]; [10]) [%] | Femtamoles of DHT Bound/mg Protein (androgen receptor [7]; [9]) [Femtamoles/mg Protein] | Femtamoles of DHT Bound/mg Protein (androgen receptor [7]; [10]) [Femtamoles/mg Protein] | further results
CCC(O)CCCCC1CCC2CC(=O)CC12 (stereo not shown) [Compound IV] | massive observable increase in the formation of elastin | ~30 | decreased | inhibited the androgen receptor site | 2.0 | 43.7 | 25 | 51 | 75 | 83 | valuable inhibitory effects | anti-androgenic compound operating in the same manner | 25.6 | 41.0 | 58 | 46 | collagen production/formation (human fibroblast cells [2]; listed as compound IV): decrease in collagen production; % Androgen Receptor Inhibition (androgen receptor [4]; strain 1): 90%; % Androgen Receptor Inhibition (androgen receptor [4]; strain 2): 49%; % Androgen Receptor Inhibition (androgen receptor [4]; strain 3): 39%; % Androgen Receptor Inhibition (androgen receptor [4]; strain 4): 63%; colony counts (Fusarium; Fusarium): markedly decreased; growth rate (Fusarium; Fusarium): markedly decreased; production of zearalanol (Fusarium; Fusarium): markedly decreased; production of zearalenone (Fusarium; Fusarium): markedly decreased; % Estrogen Receptor Inhibition (estrogen receptor): 0%; % Progesterone Receptor Inhibition (progesterone receptor [5]): 0%; % Progesterone Receptor Inhibition (progesterone receptor [6]; strain 1): 2%; % Progesterone Receptor Inhibition (progesterone receptor [6]; strain 2): 1%; % Progesterone Receptor Inhibition (progesterone receptor [6]; strain 3): 0%; % Progesterone Receptor Inhibition (progesterone receptor [6]; strain 4): 0%; % Progesterone Receptor Inhibition (progesterone receptor [6]; strain 5): 3%; % Progesterone Receptor Inhibition (progesterone receptor [6]; strain 6): 8%; % Progesterone Receptor Inhibition (progesterone receptor [6]; strain 7): 4%
CCC(CCCCC1CCC2CC(=O)CC12)OC (stereo not shown) [Compound V, 2-(5-Methoxyhept-1-yl)bicyclo[3.3.0]octan-7-one] | massive observable increase in the formation of elastin | ~30 | decrease in collagen production; also recorded: decreased | inhibited the androgen receptor site | 1.9 | 47.0 | 32 | 55 | 80 | 86 | valuable inhibitory effects | anti-androgenic compound operating in the same manner | 43.6 | 51.3 | 44 | 38 | % Androgen Receptor Inhibition (androgen receptor [8]; forearm): 22%; % Androgen Receptor Inhibition (androgen receptor [8]; keloid): 72% and 41%
